The assay has as its target T1, hyaluronidase of bovine origin (Bos taurus, UniProt Q2YDK3).
T1 sequence (Q2YDK3 36-553): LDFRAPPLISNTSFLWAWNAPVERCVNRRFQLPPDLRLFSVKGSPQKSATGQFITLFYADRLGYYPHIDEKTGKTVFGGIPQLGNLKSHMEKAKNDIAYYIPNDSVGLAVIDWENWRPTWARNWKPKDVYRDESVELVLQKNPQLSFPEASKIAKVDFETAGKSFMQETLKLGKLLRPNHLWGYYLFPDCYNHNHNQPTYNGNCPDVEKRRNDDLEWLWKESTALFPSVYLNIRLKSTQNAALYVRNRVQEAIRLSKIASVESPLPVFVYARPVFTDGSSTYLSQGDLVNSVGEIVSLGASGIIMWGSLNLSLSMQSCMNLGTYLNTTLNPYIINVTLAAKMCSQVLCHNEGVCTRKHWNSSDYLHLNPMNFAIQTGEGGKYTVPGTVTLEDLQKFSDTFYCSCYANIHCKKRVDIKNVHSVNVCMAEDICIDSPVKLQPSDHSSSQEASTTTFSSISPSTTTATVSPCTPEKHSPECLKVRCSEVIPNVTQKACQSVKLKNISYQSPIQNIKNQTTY
Put plainly: Inhibitory effect on hyaluronidase activity of bovine origin (turbidimetry at 600 nm). Type of assay: biochemical. To be noted: GLZ pre-incubated for 20 minutes at 37° C. with the enzyme. How it is done: Determination of the IC50 of GLZ, with or without Pre-Incubation at 37° C.:
GLZ, at various concentrations, is or is not pre-incubated for 20 minutes at 37° C. in the presence of the enzyme. The enzyme reaction is triggered by adding the hyaluronic acid solution (time T0). After incubation for 20 minutes, the non-hydrolyzed hyaluronic acid is precipitated by adding acidic bovine albumin solution.
In order to verify that the pre-incubation step has no effect on the stability of the hyaluronidase, an aliquot of a solution of the enzyme is placed at 37° C. for 20 minutes. Another aliquot is conserved in an ice bath for 19 minutes, and is then incubated at 37° C. for 1 minute. A solution of hyaluronic acid is then added to each aliquot (T0). After incubation for 15, or 45 minutes, the non-hydrolyzed hyaluronic acid is precipitated by addition of acidic bovine albumin solution.
Measurement of the Hyaluronidase Activity of Bovine Origin:
After the precipitation step, the turbidimetry of the solutions is determined on a spectrophotometer at a wavelength of 600 nm. The optical density (OD) of these solutions is subtracted from the OD of a control solution of hyaluronic acid (of the same concentration) not hydrolyzed by the enzyme. This difference in OD, which is inversely proportional to the concentration of hyaluronic acid, is used to measure the activity of the hyaluronidase.

What is called IC50 is the concentration needed to halve the response being measured.

`CC1(C)[C@@H](O[C@H]2O[C@H](C(=O)O)[C@@H](O)[C@H](O)[C@H]2O[C@@H]2O[C@H](C(=O)O)[C@@H](O)[C@H](O)[C@H]2O)CC[C@]2(C)[C@H]3C(=O)C=C4[C@@H]5C[C@@](C)(C(=O)O)CC[C@]5(C)CC[C@@]4(C)[C@]3(C)CC[C@@H]12` [GLZ, glycyrrhizin] returned an IC50 of 350 µM.

Source of the values: patent publication US9452126B2, “Pharmaceutical/cosmetic compositions comprising hyaluronic acid and treatment of dermatological conditions therewith” (Galderma Research & Development, priority 2005, dated 2016).
